In ChEMBL document CHEMBL1909046, “DrugMatrix in vitro pharmacology data”:

Assays:
[1] = target: T1, Polyunsaturated fatty acid lipoxygenase ALOX15 (Oryctolagus cuniculus, UniProt P12530); assay: biochemical; format: tissue-based, Reticulocytes; details: reticulocytes;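 note: inhibition of 15-lipoxygenase enzyme activity measured with linoleic acid as the substrate; in other assays of this panel Not Active means under 50% inhibition at 10 µM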
T1 sequence (P12530 whole entry): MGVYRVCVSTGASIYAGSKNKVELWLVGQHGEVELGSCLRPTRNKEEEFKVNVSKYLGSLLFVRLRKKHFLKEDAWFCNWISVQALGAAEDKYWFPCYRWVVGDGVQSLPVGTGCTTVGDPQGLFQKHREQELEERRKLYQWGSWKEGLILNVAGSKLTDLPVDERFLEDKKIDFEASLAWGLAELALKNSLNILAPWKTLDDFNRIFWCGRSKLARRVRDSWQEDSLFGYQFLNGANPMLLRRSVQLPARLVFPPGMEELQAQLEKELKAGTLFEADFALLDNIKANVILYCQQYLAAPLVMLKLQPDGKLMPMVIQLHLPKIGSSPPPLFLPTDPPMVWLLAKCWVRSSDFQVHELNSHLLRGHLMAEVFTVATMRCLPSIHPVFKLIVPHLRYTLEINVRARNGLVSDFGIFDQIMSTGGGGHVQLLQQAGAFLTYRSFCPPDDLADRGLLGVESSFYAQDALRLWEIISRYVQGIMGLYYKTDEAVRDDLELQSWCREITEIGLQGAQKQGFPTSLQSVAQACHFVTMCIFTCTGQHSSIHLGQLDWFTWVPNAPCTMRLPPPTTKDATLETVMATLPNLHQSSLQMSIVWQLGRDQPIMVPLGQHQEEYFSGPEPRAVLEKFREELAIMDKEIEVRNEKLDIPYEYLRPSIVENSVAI

[2] = target: Voltage-gated inwardly rectifying potassium channel KCNH2 (Homo sapiens, UniProt Q12809); details: hek293; note: in other assays of this panel Not Active means under 50% inhibition at 10 µM
[3] = target: Protein phosphatase 3 catalytic subunit alpha (Homo sapiens, UniProt Q08209); design: species or system Escherichia coli;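 note: inhibition of calcineurin (PP2B) enzyme activity, measured with DiFMUP as the substrate; in other assays of this panel Not Active means under 50% inhibition at 10 µM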
[4] = target: C-C chemokine receptor type 5 (Homo sapiens, UniProt P51681); format: cell membranes, HEK293, Membrane; details: hek293; note: in other assays of this panel Not Active means under 50% inhibition at 10 µM
Cytochrome P450 1A2 = target: T2, Cytochrome P450 1A2 (Homo sapiens, UniProt P05177); details: bti-tn-5b1-4; note: in other assays of this panel Not Active means under 50% inhibition at 10 µM
T2 sequence (P05177 whole entry): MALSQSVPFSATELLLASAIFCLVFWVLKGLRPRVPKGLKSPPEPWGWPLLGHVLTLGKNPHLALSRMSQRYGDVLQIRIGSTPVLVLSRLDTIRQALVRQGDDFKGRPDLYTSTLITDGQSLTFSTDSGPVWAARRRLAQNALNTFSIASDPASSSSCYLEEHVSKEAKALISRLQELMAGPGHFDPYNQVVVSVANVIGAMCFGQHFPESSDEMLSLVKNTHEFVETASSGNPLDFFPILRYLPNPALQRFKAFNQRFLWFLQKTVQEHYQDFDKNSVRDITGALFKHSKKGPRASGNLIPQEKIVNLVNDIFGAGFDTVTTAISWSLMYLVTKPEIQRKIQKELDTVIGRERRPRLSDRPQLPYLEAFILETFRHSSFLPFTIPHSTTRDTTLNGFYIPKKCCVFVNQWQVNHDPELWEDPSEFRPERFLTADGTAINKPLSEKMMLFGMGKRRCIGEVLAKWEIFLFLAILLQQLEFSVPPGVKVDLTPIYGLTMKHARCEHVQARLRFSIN

[5] = DRUGMATRIX: GABAA, Chloride Channel, TBOB radioligand binding (ligand: [3H] TBOB); format: cell membranes, Rattus norvegicus, Wistar, Cerebral cortex, Membrane; details: Not Active = under 50% inhibition at 10 µM
[6] = DRUGMATRIX: Glutamate, NMDA, Agonism radioligand binding (ligand: [3H] CGP-39653); format: cell membranes, Rattus norvegicus, Wistar, Cerebral cortex, Membrane; details: Not Active = under 50% inhibition at 10 µM
Cannabinoid receptor 1 = Cannabinoid receptor 1 (Homo sapiens, UniProt P21554); format: cell membranes, Chem-1, Membrane; details: chem-1; note: in other assays of this panel Not Active means under 50% inhibition at 10 µM
Cannabinoid receptor 1, sequence (P21554 whole entry): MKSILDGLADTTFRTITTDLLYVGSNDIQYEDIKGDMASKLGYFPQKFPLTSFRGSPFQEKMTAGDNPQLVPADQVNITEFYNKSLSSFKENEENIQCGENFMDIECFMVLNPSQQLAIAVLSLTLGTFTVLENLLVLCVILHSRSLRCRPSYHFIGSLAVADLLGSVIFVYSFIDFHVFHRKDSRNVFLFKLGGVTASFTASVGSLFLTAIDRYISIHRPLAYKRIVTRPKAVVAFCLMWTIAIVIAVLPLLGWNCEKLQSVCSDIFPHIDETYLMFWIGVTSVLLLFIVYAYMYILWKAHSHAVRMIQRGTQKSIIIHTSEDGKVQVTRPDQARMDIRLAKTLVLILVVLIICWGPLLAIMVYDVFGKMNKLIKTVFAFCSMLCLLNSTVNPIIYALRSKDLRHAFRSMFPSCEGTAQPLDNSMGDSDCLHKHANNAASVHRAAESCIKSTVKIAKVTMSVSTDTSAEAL

Voltage-gated inwardly rectifying potassium channel KCNH2, sequence (Q12809 whole entry): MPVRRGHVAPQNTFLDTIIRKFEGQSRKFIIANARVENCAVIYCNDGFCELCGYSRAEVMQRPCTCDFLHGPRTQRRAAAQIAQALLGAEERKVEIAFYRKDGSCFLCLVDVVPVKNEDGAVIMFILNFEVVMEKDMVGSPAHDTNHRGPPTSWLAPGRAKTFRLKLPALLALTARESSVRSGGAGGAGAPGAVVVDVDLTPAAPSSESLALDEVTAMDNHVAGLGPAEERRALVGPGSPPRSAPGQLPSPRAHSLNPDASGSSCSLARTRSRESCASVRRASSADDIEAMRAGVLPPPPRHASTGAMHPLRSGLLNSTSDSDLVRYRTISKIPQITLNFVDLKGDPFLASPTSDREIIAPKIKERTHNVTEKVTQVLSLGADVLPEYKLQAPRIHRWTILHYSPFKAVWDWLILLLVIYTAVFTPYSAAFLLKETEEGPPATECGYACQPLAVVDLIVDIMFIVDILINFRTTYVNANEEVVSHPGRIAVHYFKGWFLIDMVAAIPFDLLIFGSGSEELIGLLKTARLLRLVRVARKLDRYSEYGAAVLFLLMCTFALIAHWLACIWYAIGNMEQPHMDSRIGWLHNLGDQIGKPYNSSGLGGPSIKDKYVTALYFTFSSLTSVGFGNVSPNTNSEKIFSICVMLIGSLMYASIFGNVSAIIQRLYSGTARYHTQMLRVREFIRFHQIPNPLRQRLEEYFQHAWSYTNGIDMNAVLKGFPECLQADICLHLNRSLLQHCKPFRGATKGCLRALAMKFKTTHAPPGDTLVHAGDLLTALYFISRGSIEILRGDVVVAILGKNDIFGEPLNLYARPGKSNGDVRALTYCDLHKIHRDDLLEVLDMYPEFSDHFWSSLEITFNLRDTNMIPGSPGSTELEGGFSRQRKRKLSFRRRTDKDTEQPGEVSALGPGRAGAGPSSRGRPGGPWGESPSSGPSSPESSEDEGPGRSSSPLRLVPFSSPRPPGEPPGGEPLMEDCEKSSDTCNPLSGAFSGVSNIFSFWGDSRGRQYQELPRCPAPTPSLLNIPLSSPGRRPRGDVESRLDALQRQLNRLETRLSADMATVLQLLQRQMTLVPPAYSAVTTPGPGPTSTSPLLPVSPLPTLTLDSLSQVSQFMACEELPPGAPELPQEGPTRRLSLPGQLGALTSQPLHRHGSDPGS
C-C chemokine receptor type 5, sequence (P51681 whole entry): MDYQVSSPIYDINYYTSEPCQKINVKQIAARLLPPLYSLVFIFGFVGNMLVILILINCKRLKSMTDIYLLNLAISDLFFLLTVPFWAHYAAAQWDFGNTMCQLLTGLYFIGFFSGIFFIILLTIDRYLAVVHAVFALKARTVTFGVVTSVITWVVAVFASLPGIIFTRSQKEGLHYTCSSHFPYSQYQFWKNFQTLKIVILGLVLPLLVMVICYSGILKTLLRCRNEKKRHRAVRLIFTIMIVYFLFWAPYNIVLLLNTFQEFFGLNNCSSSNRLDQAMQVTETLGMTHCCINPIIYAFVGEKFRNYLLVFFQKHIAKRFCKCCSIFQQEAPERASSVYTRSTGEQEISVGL

Cc1ncc([N+](=O)[O-])n1CCO [METRONIDAZOLE]
Not Active: IC50 [1] | IC50 [2] | Ki [2] | IC50 [3] | IC50 [4] | IC50 (Cytochrome P450 1A2) | Ki (Cytochrome P450 1A2) | IC50 [5] | Ki [5] | IC50 [6] | Ki [6] | IC50 (Cannabinoid receptor 1)

OC(CCN1CCCCC1)(c1ccccc1)C1CCCCC1 (stereo not given) [TRIHEXYPHENIDYL]
Not Active: IC50 [1] | IC50 [2] | Ki [2] | IC50 [3] | IC50 [4] | IC50 (Cytochrome P450 1A2) | Ki (Cytochrome P450 1A2) | IC50 [5] | Ki [5] | IC50 [6] | Ki [6] | IC50 (Cannabinoid receptor 1)

O=C(C1CCCCC1)N1CC(=O)N2CCc3ccccc3C2C1 (stereo not given) [PRAZIQUANTEL]
Not Active: IC50 [1] | IC50 [2] | Ki [2] | IC50 [3] | IC50 [4] | IC50 (Cytochrome P450 1A2) | Ki (Cytochrome P450 1A2) | IC50 [5] | Ki [5] | IC50 [6] | Ki [6] | IC50 (Cannabinoid receptor 1)

C=C1CC[C@H](O)C/C1=C/C=C1\CCC[C@]2(C)[C@@H]([C@H](C)CCCC(C)C)CC[C@@H]12 [CHOLECALCIFEROL]
Not Active: IC50 [1] | IC50 [2] | Ki [2] | IC50 [3] | IC50 [4] | IC50 (Cytochrome P450 1A2) | Ki (Cytochrome P450 1A2) | IC50 [5] | Ki [5] | IC50 [6] | Ki [6] | IC50 (Cannabinoid receptor 1)

CC(=O)OCC(=O)[C@@]1(O)CC[C@H]2[C@@H]3CCC4=CC(=O)CC[C@]4(C)[C@H]3C(=O)C[C@@]21C [CORTISONE ACETATE]
Not Active: IC50 [1] | IC50 [2] | Ki [2] | IC50 [3] | IC50 [4] | IC50 (Cytochrome P450 1A2) | Ki (Cytochrome P450 1A2) | IC50 [5] | Ki [5] | IC50 [6] | Ki [6] | IC50 (Cannabinoid receptor 1)

COc1ccc2[nH]c([S+]([O-])Cc3ncc(C)c(OC)c3C)nc2c1 (stereo not given) [OMEPRAZOLE]
Not Active: IC50 [1] | IC50 [2] | Ki [2] | IC50 [3] | IC50 [4] | IC50 (Cytochrome P450 1A2) | Ki (Cytochrome P450 1A2) | IC50 [5] | Ki [5] | IC50 [6] | Ki [6] | IC50 (Cannabinoid receptor 1)

C[C@@]12C(=O)OC(=O)[C@]1(C)[C@H]1CC[C@@H]2O1 [CANTHARIDIN]
Not Active: IC50 [1] | IC50 [2] | Ki [2] | IC50 [3] | IC50 [4] | IC50 (Cytochrome P450 1A2) | Ki (Cytochrome P450 1A2) | IC50 [5] | Ki [5] | IC50 [6] | Ki [6] | IC50 (Cannabinoid receptor 1)

Nc1c(CC(=O)O)cccc1C(=O)c1ccc(Br)cc1 [BROMFENAC]
Not Active: IC50 [1] | IC50 [2] | Ki [2] | IC50 [3] | IC50 [4] | IC50 (Cytochrome P450 1A2) | Ki (Cytochrome P450 1A2) | IC50 [5] | Ki [5] | IC50 [6] | Ki [6] | IC50 (Cannabinoid receptor 1)

C[C@H]1O[C@@H](O[C@H]2[C@@H](O)C[C@H](O[C@H]3[C@@H](O)C[C@H](O[C@H]4CC[C@@]5(C)[C@H](CC[C@@H]6[C@@H]5CC[C@]5(C)[C@@H](C7=CC(=O)OC7)CC[C@]65O)C4)O[C@@H]3C)O[C@@H]2C)C[C@H](O)[C@@H]1O [DIGITOXIN]
Not Active: IC50 [1] | IC50 [2] | Ki [2] | IC50 [3] | IC50 [4] | IC50 (Cytochrome P450 1A2) | Ki (Cytochrome P450 1A2) | IC50 [5] | Ki [5] | IC50 [6] | Ki [6] | IC50 (Cannabinoid receptor 1)

C[N+](C)(C)CCO.[Cl-] [CHOLINE CHLORIDE]
Not Active: IC50 [1] | IC50 [2] | Ki [2] | IC50 [3] | IC50 [4] | IC50 (Cytochrome P450 1A2) | Ki (Cytochrome P450 1A2) | IC50 [5] | Ki [5] | IC50 [6] | Ki [6] | IC50 (Cannabinoid receptor 1)
